Species on record: Rattus norvegicus
Test: Open TG-GATES - Regimen: Single
Type: toxicity, organism-based, Sprague-Dawley
Parameters: regimen Single, gender Male, age 6 weeks
Settings: in vivo, po, 100 mg/kg, route gavage, dose level Low; for APTT / Bas / Eos / Fbg / Hb / Ht / Lym / MCH / MCHC / MCV / Mono / Neu / PT / Plat / RBC / Ret / WBC: tissue Blood; for KIDNEY_L / KIDNEY_R / KIDNEY_TOTAL: tissue Kidney; for LIVER: tissue Liver; for A/G / ALP / ALT / AST / BUN / CRE / Ca / Cl / DBIL / GLC / IP / K / LDH / Na / PL / RALB / TBIL / TC / TG / TP / gamma-GTP: tissue Plasma

CCCCNC(=O)NS(=O)(=O)c1ccc(C)cc1 [TOLBUTAMIDE]
TERMINAL_BW (3 h): 205.3 g | APTT (3 h): 21 s | Bas (3 h): 0% | Eos (3 h): 1% | Fbg (3 h): 274.2 mg/dL | Hb (3 h): 13.4 g/dL | Ht (3 h): 41.4% | Lym (3 h): 73% | MCH (3 h): 20.9 pg | MCHC (3 h): 32.3% | MCV (3 h): 64.7 fL | Mono (3 h): 3.4% | Neu (3 h): 21.8% | PT (3 h): 13.2 s | Plat (3 h): 122.1 x10_4/uL | RBC (3 h): 641 x10_4/ul | Ret (3 h): 8.8% | WBC (3 h): 90.7 x10_2/uL | KIDNEY_L (3 h): 1 g | KIDNEY_R (3 h): 1 g | KIDNEY_TOTAL (3 h): 2 g | LIVER (3 h): 9.2 g | A/G (3 h): 0.9 | ALP (3 h): 1360.8 IU/L | ALT (3 h): 49 IU/L | AST (3 h): 92 IU/L | BUN (3 h): 10.8 mg/dL | CRE (3 h): 0.2 mg/dL | Ca (3 h): 10.8 mg/dL | Cl (3 h): 106.2 meq/L | DBIL (3 h): 0.004 mg/dL | GLC (3 h): 156.2 mg/dL | IP (3 h): 8.5 mg/dL | K (3 h): 4 meq/L | LDH (3 h): 63.6 IU/L | Na (3 h): 141.4 meq/L | PL (3 h): 129 mg/dL | RALB (3 h): 2.5 g/dL | TBIL (3 h): 0.058 mg/dL | TC (3 h): 73.4 mg/dL | TG (3 h): 48 mg/dL | TP (3 h): 5.3 g/dL | gamma-GTP (3 h): 1.2 IU/L | TERMINAL_BW (6 h): 204.4 g | APTT (6 h): 16.5 s | Bas (6 h): 0% | Eos (6 h): 1% | Fbg (6 h): 278.2 mg/dL | Hb (6 h): 13.5 g/dL | Ht (6 h): 41.6% | Lym (6 h): 75% | MCH (6 h): 20.9 pg | MCHC (6 h): 32.3% | MCV (6 h): 64.8 fL | Mono (6 h): 2.2% | Neu (6 h): 20.4% | PT (6 h): 13.2 s | Plat (6 h): 124.3 x10_4/uL | RBC (6 h): 642.6 x10_4/ul | Ret (6 h): 9.1% | WBC (6 h): 98.3 x10_2/uL | KIDNEY_L (6 h): 0.9 g | KIDNEY_R (6 h): 0.9 g | KIDNEY_TOTAL (6 h): 1.8 g | LIVER (6 h): 8.8 g | A/G (6 h): 0.9 | ALP (6 h): 1403.8 IU/L | ALT (6 h): 40.4 IU/L | AST (6 h): 71.8 IU/L | BUN (6 h): 10.4 mg/dL | CRE (6 h): 0.2 mg/dL | Ca (6 h): 10.9 mg/dL | Cl (6 h): 106.8 meq/L | DBIL (6 h): 0.006 mg/dL | GLC (6 h): 137.4 mg/dL | IP (6 h): 9.8 mg/dL | K (6 h): 3.9 meq/L | LDH (6 h): 50.2 IU/L | Na (6 h): 141.8 meq/L | PL (6 h): 134 mg/dL | RALB (6 h): 2.5 g/dL | TBIL (6 h): 0.06 mg/dL | TC (6 h): 72.4 mg/dL | TG (6 h): 64.2 mg/dL | TP (6 h): 5.2 g/dL | gamma-GTP (6 h): 1.2 IU/L | TERMINAL_BW (9 h): 201.2 g | APTT (9 h): 16.5 s | Bas (9 h): 0% | Eos (9 h): 1.2% | Fbg (9 h): 288.4 mg/dL | Hb (9 h): 13.6 g/dL | Ht (9 h): 41.6% | Lym (9 h): 72.6% | MCH (9 h): 20.9 pg | MCHC (9 h): 32.7% | MCV (9 h): 63.9 fL | Mono (9 h): 1.6% | Neu (9 h): 24% | PT (9 h): 13.5 s | Plat (9 h): 122.2 x10_4/uL | RBC (9 h): 650.4 x10_4/ul | Ret (9 h): 8.3% | WBC (9 h): 89.4 x10_2/uL | KIDNEY_L (9 h): 0.9 g | KIDNEY_R (9 h): 0.9 g | KIDNEY_TOTAL (9 h): 1.8 g | LIVER (9 h): 7.9 g | A/G (9 h): 0.9 | ALP (9 h): 1515.4 IU/L | ALT (9 h): 39.2 IU/L | AST (9 h): 80.4 IU/L | BUN (9 h): 10 mg/dL | CRE (9 h): 0.2 mg/dL | Ca (9 h): 10.7 mg/dL | Cl (9 h): 107.4 meq/L | DBIL (9 h): 0.002 mg/dL | GLC (9 h): 158.2 mg/dL | IP (9 h): 9.7 mg/dL | K (9 h): 4.1 meq/L | LDH (9 h): 66.6 IU/L | Na (9 h): 142.4 meq/L | PL (9 h): 122.8 mg/dL | RALB (9 h): 2.5 g/dL | TBIL (9 h): 0.064 mg/dL | TC (9 h): 69.4 mg/dL | TG (9 h): 34.6 mg/dL | TP (9 h): 5.2 g/dL | gamma-GTP (9 h): 1 IU/L | TERMINAL_BW (24 h): 220.2 g | APTT (24 h): 17.7 s | Bas (24 h): 0.2% | Eos (24 h): 1% | Fbg (24 h): 273.6 mg/dL | Hb (24 h): 13.3 g/dL | Ht (24 h): 41% | Lym (24 h): 80.4% | MCH (24 h): 20.8 pg | MCHC (24 h): 32.5% | MCV (24 h): 64.1 fL | Mono (24 h): 2.4% | Neu (24 h): 15.4% | PT (24 h): 12.9 s | Plat (24 h): 129 x10_4/uL | RBC (24 h): 640.4 x10_4/ul | Ret (24 h): 7.7% | WBC (24 h): 82.4 x10_2/uL | KIDNEY_L (24 h): 1 g | KIDNEY_R (24 h): 1 g | KIDNEY_TOTAL (24 h): 2 g | LIVER (24 h): 10.2 g | A/G (24 h): 0.9 | ALP (24 h): 1457.6 IU/L | ALT (24 h): 46.4 IU/L | AST (24 h): 73 IU/L | BUN (24 h): 14.6 mg/dL | CRE (24 h): 0.2 mg/dL | Ca (24 h): 11.2 mg/dL | Cl (24 h): 104.4 meq/L | DBIL (24 h): 0.008 mg/dL | GLC (24 h): 174.6 mg/dL | IP (24 h): 8.7 mg/dL | K (24 h): 4.2 meq/L | LDH (24 h): 69 IU/L | Na (24 h): 142 meq/L | PL (24 h): 148.2 mg/dL | RALB (24 h): 2.5 g/dL | TBIL (24 h): 0.066 mg/dL | TC (24 h): 80.6 mg/dL | TG (24 h): 70.8 mg/dL | TP (24 h): 5.3 g/dL | gamma-GTP (24 h): 1.2 IU/L

Source: ChEMBL document CHEMBL3885861, “Open TG-GATES”
